Assay results taken from patent US20240400579A1, “SPIROCYCLIC MODULATORS OF CHOLESTEROL BIOSYNTHESIS AND THEIR USE FOR PROMOTING REMYELINATION” (GENENTECH, INC., priority 2021, published 2024).
Read-outs that look alike come from different tables or passages of the source.

Experiments:
[1] = target: human emopamil binding protein and human 7-dehydrocholesterol reductase co-expressing cell membrane (Homo sapiens (Human), UniProt Q15125); assay: hEBP-DHCR7 radioligand filtration binding assay with [3H]-Compound 118A*; settings: radioligand [3H]-Compound 118A*; HEK293 membrane co-expressing hEBP and DHCR7
How it was run: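 HEK293 membranes transiently co-expressing hEBP and hDHCR7 (10 μg/well) were incubated with [3H]-Compound 118A* (added at 25 nM) and compounds (8 doses, final 0.06–5000 nM, n=2) for 3 h at 22 °C. Bound radioactivity was read after PEI-treated GF/B filtration. IC50 came from a Hill fit of % inhibition and was converted to Ki.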

[2] = system: zymostenol accumulation in EpiSC-derived OPCs (EBP); assay: GC/MS-based sterol profiling, zymostenol accumulation; format: cell-based, mouse; settings: 8 doses from 0.15 nM to 333 nM, read-out: mZymo GCMS EC50
How it was run: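 EpiSC-derived mouse OPCs plated at 100,000 cells/well in N2B27 without growth factors and treated 24 h. Sterols extracted, silylated with BSTFA and measured by GC/MS (EI, full scan), quantified against cholesterol-d7. Zymostenol normalized to levels after 24 h with 100 nM positive control reference.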

EpiSC-derived OPCs = assay: In vitro phenotypic screening of OPCs, MBP high-content imaging; format: cell-based, mouse; settings: percentage of MBP+ oligodendrocytes, 3 days, 0.5 nM to 1000 nM, read-out: mOPC EC50
How it was run: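 Mouse EpiSC-derived OPCs seeded without growth factors and exposed 3 days at 37° C. to 8-point doses, 1000 nM to 0.5 nM final. Fixed cells stained for MBP and DAPI; high-content imaging gave percentage MBP+ oligodendrocytes, with EC50 from Hill-equation fit.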

Chain of human emopamil binding protein and human 7-dehydrocholesterol reductase co-expressing cell membrane (Q15125 whole entry): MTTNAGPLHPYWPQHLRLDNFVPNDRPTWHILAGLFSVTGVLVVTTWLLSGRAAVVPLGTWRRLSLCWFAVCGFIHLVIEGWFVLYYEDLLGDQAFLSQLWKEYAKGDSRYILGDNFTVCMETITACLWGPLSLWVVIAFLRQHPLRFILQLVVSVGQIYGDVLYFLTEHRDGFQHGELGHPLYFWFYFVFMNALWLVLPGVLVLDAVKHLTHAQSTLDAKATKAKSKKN

Ki [1] | EC50 ([2]; Mus musculus, 24 h) | EC50 (EpiSC-derived OPCs; Mus musculus, 72 h) | EC50 ([2]; 24 hours) | EC50 (EpiSC-derived OPCs) | Structure (SMILES)
5.14 nM | 2.1 nM | 3 nM |  |  | C[C@@H](Cc1ccc(C2CCC2)cc1)CN1CCC2(C1)CS(=O)(=O)C2 (single isomer, unassigned) [109C*]
12.8 nM | 0.69 nM | 1.52 nM |  |  | CC(C)(CN1CCC2(CC1)CS(=O)(=O)C2)Oc1ccc(C(F)(F)F)c(F)c1 [Example 208, 7-(2-(3-Fluoro-4-(trifluoromethyl)phenoxy)-2-methylpropyl)-2-thia-7-azaspiro[3.5]nonane 2,2-dioxide]
12 nM | 5 nM | 4.7 nM |  |  | O=S1(=O)CC2(CCN(CCCc3ccc(OC(F)(F)F)cc3)CC2)C1 [Compound 213, 7-(3-(4-(Trifluoromethoxy)phenyl)propyl)-2-thia-7-azaspiro[3.5]nonane 2,2-dioxide]
13.9 nM | 2 nM | 5.6 nM |  |  | C[C@H](Cc1ccc(C(F)(F)F)cc1)CN1CC2(CCS(=O)(=O)CC2)C1 (single isomer, unassigned) [232A*]
10.6 nM |  |  | 4.6 nM | 13 nM | C[C@H](CN1CCC2(CC1)CS(=O)(=O)C2)Oc1ccc(F)c(F)c1 (single isomer, unassigned) [221B*]
10.5 nM | 4 nM | 2.2 nM |  |  | C[C@H](Cc1ccc(OC(F)(F)F)cc1)CN1CCC2(C1)CS(=O)(=O)C2 (single isomer, unassigned) [119B*]
11.9 nM |  |  | 14 nM | 54 nM | C[C@H](Cc1ccc([C@H]2CC[C@](C)(O)CC2)c(Cl)c1)CN1CCC2(C1)CS(=O)(=O)C2 (mixture of isomers) [Compound 123A, 6-((R)-3-(3-Chloro-4-((1r,4R)-4-hydroxy-4-methylcyclohexyl)phenyl)-2-methylpropyl)-2-thia-6-azaspiro[3.4]octane 2,2-dioxide, 6-((S)-3-(3-chloro-4-((1r,4S)-4-hydroxy-4-methylcyclohexyl)phenyl)-2-methylpropyl)-2-thia-6-azaspiro[3.4]octane 2,2-dioxide]
17.1 nM | 2.6 nM | 3.89 nM |  |  | CC(C)n1nc(C(F)(F)F)cc1C[C@H](C)CN1CCC2(C1)CS(=O)(=O)C2 (single isomer, unassigned) [235B*]
31.6 nM | 25.6 nM | 74.1 nM |  |  | O=S1(=O)CC2(CCN(CCOc3cnc([C@H]4CC[C@H](C(F)(F)F)CC4)c(F)c3)CC2)C1 [Compound 249, 7-(2-((5-Fluoro-6-((trans)-4-(trifluoromethyl)cyclohexyl)pyridin-3-yl)oxy)ethyl)-2-thia-7-azaspiro[3.5]nonane 2,2-dioxide]
9.98 nM | 0.95 nM | 1.4 nM |  |  | C[C@@H](Cc1ccc(C(F)(F)F)cc1)CN1CCC2(CC1)CS(=O)(=O)C2 (single isomer, unassigned) [216A*]
5.72 nM | 3.16 nM | 22.8 nM |  |  | O=S1(=O)CC2(CCN(CCOc3ccc([C@H]4CC[C@H](C(F)(F)F)CC4)nc3)CC2)C1 [247A*, 7-(2-((6-((trans)-4-(Trifluoromethyl)cyclohexyl)pyridin-3-yl)oxy)ethyl)-2-thia-7-azaspiro[3.5]nonane 2,2-dioxide]
18.9 nM | 8.6 nM | 42 nM |  |  | C[C@H](CN1CCC2(C1)CS(=O)(=O)C2)Oc1ccc(C(F)(F)F)cc1 (single isomer, unassigned) [115A*]

Structure (SMILES) | Ki [1] | EC50 ([2]; Mus musculus, 24 h) | EC50 (EpiSC-derived OPCs; Mus musculus, 72 h) | EC50 ([2]; 24 hours) | EC50 (EpiSC-derived OPCs)
C[C@H](Cc1ccc(C(F)(F)F)cn1)CN1CCC2(C1)CS(=O)(=O)C2 (single isomer, unassigned) [121B*] | 140 nM | 150 nM | 260 nM |  | 
O=S1(=O)CCC2(CC1)CN(CCCc1ccc(C(F)(F)F)nc1)C2 [Compound 223, 2-(3-(6-(Trifluoromethyl)pyridin-3-yl)propyl)-7-thia-2-azaspiro[3.5]nonane 7,7-dioxide] | 555 nM | 120 nM | 355 nM |  | 
C[C@@H](Cc1ccc(C(F)(F)F)cn1)CN1CCC2(C1)CS(=O)(=O)C2 (single isomer, unassigned) [121A*] | 115 nM | 6.1 nM | 23 nM |  | 
